Experimental data reported in patent EP0565593B1, “REDUCING PESTICIDAL INTERACTIONS IN CROPS” (priority 1990, dated 1992).
Where two headings read alike, the source gives them in different places.

How the values were obtained:
Giant foxtail (GIFT) = assay: whole plant or invertebrate; assay type: in vivo
Shattercane (SHCA) = assay type: in vivo; conditions: […]
Velvetleaf (VELE) [1] = assay: whole plant or invertebrate; assay type: in vivo, Abutilon theophrasti
Corn [2] = test system: Corn
Corn [3] = conditions: […]
Velvetleaf (VELE) [4] = assay type: in vivo, Abutilon theophrasti; conditions: […]
[5] = […], PPI, 14 days after PPI (Table 34)
[6] = observed 8 days later (Table 32)
[7] = observed 8 days later (Table 33)
[8] = […], PPI, 13 days after PPI (Table 31)
[9] = observed 9 days later (Table 29)
[10] = observed 9 days later (Table 30)
[11] = observed 7 days after POE (Table 35)
[12] = observed 7 days after POE (Table 36)

Structure (SMILES) | % Inhibition GIFT (Giant foxtail (GIFT); [5]) | % Inhibition SHCA (Shattercane (SHCA); [6]) | % Inhibition SHCA (Shattercane (SHCA); [7]) | % Inhibition VELE (Velvetleaf (VELE) [1]; [5]) | % Inhibition Corn (Corn [2]; [5]) | % Inhibition Corn (Corn [3]; [6]) | % Inhibition Corn (Corn [3]; [7]) | % Inhibition VELE (Velvetleaf (VELE) [4]; [6]) | % Inhibition VELE (Velvetleaf (VELE) [4]; [7]) | % Inhibition GIFT (Giant foxtail (GIFT); in vivo) | % Inhibition SHCA (Shattercane (SHCA); [11]) | % Inhibition SHCA (Shattercane (SHCA); [12]) | % Inhibition VELE (Velvetleaf (VELE) [1]; in vivo) | % Inhibition Corn (Corn [2]; in vivo) | % Inhibition Corn (Corn [3]; [11]) | % Inhibition Corn (Corn [3]; [12]) | % Inhibition VELE (Velvetleaf (VELE) [4]; [11]) | % Inhibition VELE (Velvetleaf (VELE) [4]; [12]) | further results
C#CCOC(=O)COC(c1ccccc1)c1ccccc1 [compound 54] | 60% | 70% | 20% | 90% | 55% | 30% | 55% | 90% | 65% |  |  |  |  |  |  |  |  |  | 
CC1Cc2ccccc2C(C)N1C(=O)C(Cl)Cl (stereo not drawn) [compound 26] |  |  |  |  |  |  |  |  |  |  |  |  |  |  |  |  |  |  | % Inhibition GIFT (Giant foxtail (GIFT); [8]): 75%; % Inhibition SHCA (Shattercane (SHCA); [9]): 70%; % Inhibition SHCA (Shattercane (SHCA); [10]): 35%; % Inhibition VELE (Velvetleaf (VELE) [1]; [8]): 80%; % Inhibition Corn (Corn [2]; [8]): 65%; % Inhibition Corn (Corn [3]; [9]): 40%; % Inhibition Corn (Corn [3]; [10]): 50%; % Inhibition VELE (Velvetleaf (VELE) [4]; [9]): 90%; % Inhibition VELE (Velvetleaf (VELE) [4]; [10]): 75%
Cn1cccc1C1CN(C(=O)C(Cl)Cl)C(C)(C)O1 (stereo not drawn) [compound 35] |  |  |  |  |  |  |  |  |  |  |  |  |  |  |  |  |  |  | % Inhibition GIFT (Giant foxtail (GIFT); [8]): 70%; % Inhibition SHCA (Shattercane (SHCA); [9]): 75%; % Inhibition SHCA (Shattercane (SHCA); [10]): 30%; % Inhibition VELE (Velvetleaf (VELE) [1]; [8]): 80%; % Inhibition Corn (Corn [2]; [8]): 40%; % Inhibition Corn (Corn [3]; [9]): 20%; % Inhibition Corn (Corn [3]; [10]): 35%; % Inhibition VELE (Velvetleaf (VELE) [4]; [9]): 90%; % Inhibition VELE (Velvetleaf (VELE) [4]; [10]): 65%
O=C(C(Cl)Cl)N1CCc2ccccc2C1c1ccccc1 (stereo not drawn) [compound 40] |  |  |  |  |  |  |  |  |  |  |  |  |  |  |  |  |  |  | % Inhibition GIFT (Giant foxtail (GIFT); [8]): 70%; % Inhibition SHCA (Shattercane (SHCA); [9]): 85%; % Inhibition SHCA (Shattercane (SHCA); [10]): 40%; % Inhibition VELE (Velvetleaf (VELE) [1]; [8]): 85%; % Inhibition Corn (Corn [2]; [8]): 60%; % Inhibition Corn (Corn [3]; [9]): 45%; % Inhibition Corn (Corn [3]; [10]): 35%; % Inhibition VELE (Velvetleaf (VELE) [4]; [9]): 90%; % Inhibition VELE (Velvetleaf (VELE) [4]; [10]): 70%
CC(C)(C)OC(=O)COC1c2ccccc2CCc2ccccc21 [compound 45] | 75% | 85% | 25% | 90% | 70% | 65% | 65% | 80% | 70% |  |  |  |  |  |  |  |  |  | 
CCC1c2ccccc2CCN1C(=O)C(Cl)Cl (stereo not drawn) [compound 39] |  |  |  |  |  |  |  |  |  |  |  |  |  |  |  |  |  |  | % Inhibition GIFT (Giant foxtail (GIFT); [8]): 85%; % Inhibition SHCA (Shattercane (SHCA); [9]): 75%; % Inhibition SHCA (Shattercane (SHCA); [10]): 40%; % Inhibition VELE (Velvetleaf (VELE) [1]; [8]): 95%; % Inhibition Corn (Corn [2]; [8]): 50%; % Inhibition Corn (Corn [3]; [9]): 25%; % Inhibition Corn (Corn [3]; [10]): 40%; % Inhibition VELE (Velvetleaf (VELE) [4]; [9]): 90%; % Inhibition VELE (Velvetleaf (VELE) [4]; [10]): 80%
O=C(COC(c1ccccc1)c1ccccc1)OCc1ccoc1 [compound 55] | 65% | 75% | 25% | 90% | 45% | 25% | 50% | 85% | 70% |  |  |  |  |  |  |  |  |  | 
CCOC(=O)c1sc(I)nc1C(F)(F)F [compound 67] |  |  |  |  |  |  |  |  |  | 75% | 65% | 40% | 95% | 55% | 35% | 45% | 85% | 70% | 
CCOC(=O)CNC(c1ccc(OC)cc1)c1ccc(OC)cc1 [compound 43] | 70% | 65% | 35% | 90% | 80% | 55% | 65% | 85% | 75% |  |  |  |  |  |  |  |  |  | 
CC(Cl)C(=O)Nc1nc(C(F)(F)F)c(I)s1 (stereo not drawn) [compound 72] |  |  |  |  |  |  |  |  |  | 75% | 75% | 30% | 90% | 75% | 70% | 60% | 85% | 70% | 
CCCCCCOC(=O)c1sc(Cl)nc1C(F)(F)F [compound 62] |  |  |  |  |  |  |  |  |  | 75% | 65% | 30% | 95% | 65% | 30% | 55% | 80% | 60% | 
CC1(C)OC(Cc2ccccc2)CN1C(=O)C(Cl)Cl (stereo not drawn) [compound 34] |  |  |  |  |  |  |  |  |  |  |  |  |  |  |  |  |  |  | % Inhibition GIFT (Giant foxtail (GIFT); [8]): 75%; % Inhibition SHCA (Shattercane (SHCA); [9]): 70%; % Inhibition SHCA (Shattercane (SHCA); [10]): 25%; % Inhibition VELE (Velvetleaf (VELE) [1]; [8]): 80%; % Inhibition Corn (Corn [2]; [8]): 35%; % Inhibition Corn (Corn [3]; [9]): 15%; % Inhibition Corn (Corn [3]; [10]): 35%; % Inhibition VELE (Velvetleaf (VELE) [4]; [9]): 85%; % Inhibition VELE (Velvetleaf (VELE) [4]; [10]): 70%
O=C(O)COc1cc(C(F)(F)F)cc(C(F)(F)F)c1 [compound 71] |  |  |  |  |  |  |  |  |  | 70% | 65% | 30% | 90% | 30% | 20% | 45% | 85% | 75% | 
Cc1csc(=NC(C)c2ccccc2)s1 (stereo not drawn) [compound 69] |  |  |  |  |  |  |  |  |  | 70% | 75% | 40% | 90% | 35% | 30% | 50% | 80% | 70% | 
C=CCC(C)(C#N)Sc1ccc(C(C)C)cc1 (stereo not drawn) [compound 75] |  |  |  |  |  |  |  |  |  | 75% | 70% | 40% | 85% | 75% | 70% | 65% | 85% | 75% | 
CNC(=O)COC(c1ccccc1)c1ccccc1 [compound 42] | 70% | 75% | 30% | 90% | 75% | 70% | 60% | 90% | 70% |  |  |  |  |  |  |  |  |  | 
O=C(COC(c1ccccc1)c1ccccc1)OCC(F)(F)F [compound 48] | 60% | 80% | 25% | 95% | 30% | 20% | 45% | 90% | 70% |  |  |  |  |  |  |  |  |  | 
Cc1cccc(C)c1C(OCC(=O)O)c1c(C)cccc1C [compound 56] | 75% | 75% | 30% | 85% | 65% | 60% | 60% | 85% | 75% |  |  |  |  |  |  |  |  |  | 
O=C(C(Cl)Cl)N1CC(c2ccco2)OC1c1ccccc1 (stereo not drawn) [compound 36] |  |  |  |  |  |  |  |  |  |  |  |  |  |  |  |  |  |  | % Inhibition GIFT (Giant foxtail (GIFT); [8]): 75%; % Inhibition SHCA (Shattercane (SHCA); [9]): 75%; % Inhibition SHCA (Shattercane (SHCA); [10]): 35%; % Inhibition VELE (Velvetleaf (VELE) [1]; [8]): 90%; % Inhibition Corn (Corn [2]; [8]): 60%; % Inhibition Corn (Corn [3]; [9]): 45%; % Inhibition Corn (Corn [3]; [10]): 45%; % Inhibition VELE (Velvetleaf (VELE) [4]; [9]): 100%; % Inhibition VELE (Velvetleaf (VELE) [4]; [10]): 80%
CCOC(=O)c1sc(Cl)nc1C(F)(F)F [compound 60] |  |  |  |  |  |  |  |  |  | 75% | 60% | 35% | 90% | 60% | 40% | 60% | 80% | 65% | 
O=C(COC(c1ccccc1)c1ccccc1)Oc1ccccc1 [compound 50] | 70% | 75% | 25% | 95% | 60% | 20% | 45% | 80% | 70% |  |  |  |  |  |  |  |  |  | 
CC(C)(C)c1ccccc1SCCC#N [compound 74] |  |  |  |  |  |  |  |  |  | 85% | 80% | 20% | 90% | 70% | 65% | 60% | 80% | 70% | 
CCCCOC(=O)c1sc(Cl)nc1C(F)(F)F [compound 61] |  |  |  |  |  |  |  |  |  | 70% | 65% | 35% | 90% | 60% | 35% | 55% | 75% | 65% | 
O=C(O)COC(c1ccccc1)c1ccccc1 [compound 80] | 65% | 80% | 35% | 100% | 40% | 20% | 55% | 85% | 75% |  |  |  |  |  |  |  |  |  | 
CCOC(=O)CNC(c1ccc(Cl)cc1)c1ccc(Cl)cc1 [compound 44] | 65% | 80% | 30% | 95% | 75% | 65% | 60% | 85% | 65% |  |  |  |  |  |  |  |  |  | 
CC1(C)OC(c2cc3ccccc3o2)CN1C(=O)C(Cl)Cl (stereo not drawn) [compound 38] |  |  |  |  |  |  |  |  |  |  |  |  |  |  |  |  |  |  | % Inhibition GIFT (Giant foxtail (GIFT); [8]): 70%; % Inhibition SHCA (Shattercane (SHCA); [9]): 80%; % Inhibition SHCA (Shattercane (SHCA); [10]): 25%; % Inhibition VELE (Velvetleaf (VELE) [1]; [8]): 85%; % Inhibition Corn (Corn [2]; [8]): 50%; % Inhibition Corn (Corn [3]; [9]): 20%; % Inhibition Corn (Corn [3]; [10]): 45%; % Inhibition VELE (Velvetleaf (VELE) [4]; [9]): 95%; % Inhibition VELE (Velvetleaf (VELE) [4]; [10]): 70%
